This experiment deals with T1, human plasma renin activity (PRA) (Homo sapiens, UniProt P00797).
T1 construct: from tissue; host or cells: human plasma pool
T1 sequence (P00797 67-406): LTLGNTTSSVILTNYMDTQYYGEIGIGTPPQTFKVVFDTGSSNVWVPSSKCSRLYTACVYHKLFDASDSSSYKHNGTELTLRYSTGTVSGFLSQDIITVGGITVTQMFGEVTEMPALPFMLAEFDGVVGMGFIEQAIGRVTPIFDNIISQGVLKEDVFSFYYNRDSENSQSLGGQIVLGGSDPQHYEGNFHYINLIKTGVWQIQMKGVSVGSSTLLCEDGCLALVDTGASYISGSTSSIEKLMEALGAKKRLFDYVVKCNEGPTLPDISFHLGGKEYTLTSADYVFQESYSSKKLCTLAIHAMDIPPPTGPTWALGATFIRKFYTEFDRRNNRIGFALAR
Nature of the experiment: Inhibition of human plasma renin activity (PRA) in vitro, angiotensin I released measured by radioimmunoassay. Type of experiment: biochemical. As to conditions: for IC50: read-out: Inhibition of human PRA -log IC50 M pH 7.4 (converted); for Inhibition of human PRA -log IC50 M pH 7.4: human plasma pool rich in renin, 60 min at 37° C., phosphate buffer pH 7.4. How it is done:
Human plasma contains the substrate angiotensinogen and the enzyme renin. […] An inhibitor of the conversion enzyme, phenylmethylsulfonyl fluoride (PMSF), is added to the incubation medium.
420 microliters of human plasma
11 to 50 microliters of the product to be studied, at variable concentrations
A solution of acetic acid in methanol (19/1 by volume) and a solution of sodium hydroxide in methanol (2/1 by volume) are prepared. In a mixture of equal volumes of these 2 solutions, a 0.001M stock solution of the peptide is prepared. The subsequent dilutions of the peptide are then made up in the phosphate buffer.
The results are expressed by their logarithmic value (-log IC50).

Starred links: 1 amine or outer side, 2 acyl side, 3 side chain; linkers in the order of their positions; H or OH if unused. Non-standard residues stand in square brackets, D forms with d. Residues, ends and D or L forms follow the SMILES beside them. ξ: configuration not given here. *: point of attachment. X9 = CCn1cnc(C[C@H](N[*:1])C(=O)[*:2])c1; His(τ-Me) = Cn1cnc(C[C@H](N)C(=O)O)c1; Sta = CC(C)C[C@H](N)[C@@H](O)CC(=O)O; X10 = Cc1nc(C(N[*:1])C(=O)[*:2])cs1; Gly(cPent) = N[C@H](C(=O)O)C1CCCC1; Phg = N[C@H](C(=O)O)c1ccccc1; ξ3Pal = NC(Cc1cccnc1)C(=O)O; ξ4Pal = NC(Cc1ccncc1)C(=O)O; Isovaleryl = CC(C)CC(=O)*; Boc = CC(C)(C)OC(=O)*; OBn = c1ccc(CO*)cc1; X4 = c1ccc(C*)nc1; tBu = CC(C)(C)*

One may read the IC50 as the concentration that inhibits the measured activity by half.

In the case of `CCn1cnc(C[C@H](NC(=O)[C@H](Cc2ccccc2)NC(=O)OC(C)(C)C)C(=O)N[C@@H](CC(C)C)[C@@H](O)CC(=O)N[C@@H](C)C(=O)N[C@@H](CC(C)C)[C@@H](O)CC(=O)OC)c1` [SR 43391, Boc--Phe--(tauEt)His--Sta--Ala--Sta--OMe] (Boc-F[X9][Sta]A[Sta]-OMe), the IC50 was 64.6 nM. For “Boc-Phe-(Pyr-2)Ala-Sta-Leu-Phe-OMe [SR 43151]”, where the note is “listed as 41 151”, the “Inhibition of human PRA -log IC50 M pH 7.4” value is 6.66 -log M.

Regarding “Boc-Phe-(Pyr-2)Ala-Sta-Leu-Phe-OMe [SR 43150]”, the “Inhibition of human PRA -log IC50 M pH 7.4” value is recorded as 5.21 -log M. On to `COC(=O)C[C@H](O)[C@H](CC(C)C)NC(=O)[C@H](C)NC(=O)C[C@H](O)[C@H](CC(C)C)NC(=O)[C@@H](NC(=O)[C@H](Cc1ccccc1)NC(=O)OC(C)(C)C)c1ccccc1` [SR 42823, Boc--Phe--Phg--Sta--Ala--Sta--OMe] (Boc-F[Phg][Sta]A[Sta]-OMe), for which the IC50 was 93.3 nM.

For the compound `CC(C)CC(=O)N[C@@H](Cc1ccccc1)C(=O)N[C@@H](Cc1cn(C)cn1)C(=O)N[C@@H](CC(C)C)[C@@H](O)CC(=O)N[C@@H](C)C(=O)N[C@@H](CC(C)C)[C@@H](O)CC(=O)O` [SR 43761, iVa--Phe--(tauMe)His--Sta--Ala--Sta--OH] (Isovaleryl-F[His(τ-Me)][Sta]A[Sta]-OH), the IC50 was 151 nM. As for `COC(=O)[C@H](Cc1ccccc1)NC(=O)[C@H](CC(C)C)NC(=O)C[C@H](O)[C@H](CC(C)C)NC(=O)C(Cc1cccnc1)NC(=O)[C@H](Cc1ccccc1)NC(=O)OC(C)(C)C` (stereo partly drawn) [SR 43064, Boc-Phe-(Pyr-3)Ala-Sta-Leu-Phe-OMe] (Boc-F[ξ3Pal][Sta]LF-OMe), the IC50 was 316 nM. Consider `COC(=O)C[C@H](O)[C@H](CC(C)C)NC(=O)[C@H](C)NC(=O)C[C@H](O)[C@H](CC(C)C)NC(=O)C(Cc1cccnc1)NC(=O)[C@H](Cc1ccccc1)NC(=O)OC(C)(C)C` (stereo partly drawn) [SR 43429, Boc-Phe-(Pyr-3)Ala-Sta-Ala-Sta-OMe] (Boc-F[ξ3Pal][Sta]A[Sta]-OMe), for which the IC50 is 417 nM.

For “Boc--Phe--(1-methylimidazol-2-yl)Ala--AHPPA--Ala--Sta--OCH3 [SR 43428]”, the “Inhibition of human PRA -log IC50 M pH 7.4” value was 6.16 -log M. For `COC(=O)[C@H](Cc1ccccc1)NC(=O)[C@H](CC(C)C)NC(=O)C[C@H](O)[C@H](CC(C)C)NC(=O)C(Cc1ccncc1)NC(=O)[C@H](Cc1ccccc1)NC(=O)OC(C)(C)C` (stereo partly drawn) [SR 43144, Boc-Phe-(Pyr-4)Ala-Sta-Leu-Phe-OMe] (Boc-F[ξ4Pal][Sta]LF-OMe), the IC50 is 1320 nM.

For `COC(=O)[C@H](CC(C)C)NC(=O)[C@H](C)NC(=O)C[C@H](O)[C@H](CC(C)C)NC(=O)[C@H](CC(=O)OCc1ccccc1)NC(=O)[C@H](Cc1ccccc1)NC(=O)OC(C)(C)C` [SR 42926, Boc-Phe-(PhCH2)Asp-Sta-Ala-Leu-OMe] (Boc-FD(OBn)[Sta]AL-OMe), the IC50 was 398 nM. On to `COC(=O)C[C@H](O)[C@H](CC(C)C)NC(=O)[C@H](C)NC(=O)C[C@H](O)[C@H](CC(C)C)NC(=O)[C@@H](NC(=O)[C@H](Cc1ccccc1)NC(=O)OC(C)(C)C)C1CCCC1` [SR 43554, Boc--Phe--Cpg--Sta--Ala--Sta--OMe] (Boc-F[Gly(cPent)][Sta]A[Sta]-OMe), for which the IC50 is 37.2 nM. Turning to `COC(=O)C[C@H](O)[C@H](CC(C)C)NC(=O)[C@H](C)NC(=O)C[C@H](O)[C@H](CC(C)C)NC(=O)[C@H](COCc1ccccn1)NC(=O)[C@H](Cc1ccccc1)NC(=O)OC(C)(C)C` [SR 43555, Boc--Phe--((Pyr--2)CH2 O)Ser--Sta--Ala--Sta--OMe] (Boc-FS(X4)[Sta]A[Sta]-OMe), the IC50 was 316 nM. For the compound `COC(=O)[C@H](CC(C)C)NC(=O)[C@H](C)NC(=O)C[C@H](O)[C@H](CC(C)C)NC(=O)C(NC(=O)[C@H](Cc1ccccc1)NC(=O)OC(C)(C)C)c1csc(C)n1` (stereo partly drawn) [SR 43059, Boc-Phe-(2-methylthiazol-4-yl)Gly-Sta-Ala-Leu-OMe] (Boc-F[X10][Sta]AL-OMe), the IC50 is 3020 nM.

With `COC(=O)C[C@H](O)[C@H](CC(C)C)NC(=O)[C@H](C)NC(=O)C[C@H](O)[C@H](CC(C)C)NC(=O)[C@H](COC(C)(C)C)NC(=O)[C@H](Cc1ccccc1)NC(=O)OC(C)(C)C` [SR 43297, Boc--Phe--((CH3)3 CO)Ser--Sta--Ala--Sta--OMe] (Boc-FS(tBu)[Sta]A[Sta]-OMe), the IC50 was 2140 nM.

Source of the values: patent publication US4746648A, “Peptide derivatives which inhibit renin and acid proteases” (Sanofi; Institut National de la Recherche Medicale, priority 1985, dated 1988).
